We go through 13 compounds from patent US12083140B2, “Pharmaceutical composition for preventing and treating glaucoma, containing adenosine derivative” (FUTURE MEDICINE CO., LTD., priority 2017, dated 2024).

In series [1] the test system is TPA-induced mouse ear edema. As to the kind of experiment: Anti-inflammatory activity, TPA-induced mouse ear edema. Format: in vivo, ICR mice. The conditions noted are these: for TPA-induced mouse ear edema: 0.5% in acetone. The method, then:
In order to investigate the anti-inflammatory activity of the derivatives of the present invention, the animal experiments were performed as below. Seven-week-old male ICR mice were treated with TPA (12-O-tetradecanoylphorbol 13-acetate, […]) in the right ear. […] The same experiment was performed by treating hydrocortisone used as a treatment agent for inflammation as a control at the same concentration.
Subsequently, secondly, the adenosine derivative compound of the present invention was treated after 6 hours from TPA treatment. Twenty-four hours after TPA treatment, the animals were euthanized using the cervical dislocation method. Then, a right ear sample was obtained using a 6 mm diameter punch. The activity could be confirmed by weighing using a microbalance. The inhibition rate (%) was calculated using the following Equation 1.

Series [2] deals with T1, human adenosine A3 receptor (Homo sapiens, UniProt P0DMS8).
T1 construct: expressed in transfected cells; host or cells: CHO (ATCC CCL-61)
T1 sequence (P0DMS8 1-318): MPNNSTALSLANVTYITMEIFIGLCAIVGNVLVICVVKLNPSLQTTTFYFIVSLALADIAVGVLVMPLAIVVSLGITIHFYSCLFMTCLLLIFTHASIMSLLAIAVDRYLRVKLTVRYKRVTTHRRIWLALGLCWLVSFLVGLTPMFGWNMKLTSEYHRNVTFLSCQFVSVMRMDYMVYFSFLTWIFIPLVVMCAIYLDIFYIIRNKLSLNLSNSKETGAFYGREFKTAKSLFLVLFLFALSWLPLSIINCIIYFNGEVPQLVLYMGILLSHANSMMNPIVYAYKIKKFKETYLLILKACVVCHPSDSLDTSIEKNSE
As to the kind of experiment: Antagonistic effect and cAMP inhibition test on adenosine A3 receptor (CHO cells, Cl-IB-MECA, Schild analysis). It is filed as cell-based. Particulars: different concentrations.

The target of series [3] is T2, human adenosine A2B receptor (Homo sapiens, UniProt P29275).
T2 sequence (P29275 1-332): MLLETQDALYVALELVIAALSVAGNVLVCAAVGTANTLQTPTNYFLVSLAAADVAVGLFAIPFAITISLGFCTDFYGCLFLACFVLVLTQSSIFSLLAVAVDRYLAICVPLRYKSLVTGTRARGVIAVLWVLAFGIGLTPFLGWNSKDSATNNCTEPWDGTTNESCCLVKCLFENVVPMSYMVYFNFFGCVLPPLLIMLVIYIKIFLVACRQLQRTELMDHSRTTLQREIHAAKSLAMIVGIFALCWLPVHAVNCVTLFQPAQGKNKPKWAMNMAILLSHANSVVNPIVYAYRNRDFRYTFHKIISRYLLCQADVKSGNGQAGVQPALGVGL
As to the kind of experiment: Agonist or antagonist activity at human adenosine A2B receptor. It is filed as biochemical.

For series [4], the target named is T3, adenosine A3 receptor in rats expressed in Chinese hamster ovary (CHO) cells (Rattus norvegicus, UniProt P28647).
T3 construct: expressed in transfected cells; host or cells: CHO
T3 sequence (P28647 1-320): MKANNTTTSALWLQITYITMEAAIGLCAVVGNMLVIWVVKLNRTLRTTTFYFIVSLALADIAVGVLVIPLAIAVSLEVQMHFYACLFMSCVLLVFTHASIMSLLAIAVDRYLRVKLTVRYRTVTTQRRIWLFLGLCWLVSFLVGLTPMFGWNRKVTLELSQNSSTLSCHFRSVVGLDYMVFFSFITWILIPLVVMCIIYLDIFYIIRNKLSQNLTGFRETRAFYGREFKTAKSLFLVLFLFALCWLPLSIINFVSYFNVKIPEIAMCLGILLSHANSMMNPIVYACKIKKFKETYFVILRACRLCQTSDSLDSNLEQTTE
As to the kind of experiment: Binding affinity for rat adenosine A3 receptor expressed in CHO cells.

The subject of series [5] is extracellular matrix proteins (Fibronectin, SMA and MYOC). As to the kind of experiment: Anti-fibrotic effect on trabecular meshwork tissue (immunostaining). Format: in vivo, C57BL/6J mice. Particulars: Example 2 oral 20 mg/kg once a day and 10 mg/kg twice a day; acetazolamide 4.17 mg/kg once a day. The method, then:
In Experimental Example 10, the ocular tissues of each laboratory animal after measurement of intraocular pressure were extracted and sectioned and immunostaining using antibody was performed to confirm the expression of extracellular matrix proteins (Fibronectin, SMA and MYOC) and the results are shown in FIG. 13. In FIG. 13, Normal represents the trabecular meshwork of the animal which dexamethasone was not treated with in Experimental Example 10, Control represents the trabecular meshwork tissue of the animal to which only the excipient was administered in Experimental Example 10, Acetazolamide represents the trabecular meshwork tissue of the animal to which acetazolamide was administered in Experimental Example 10. Fluorescently stained tissue was observed under fluorescence microscope under the same conditions (magnification 200×, exposure time 1 sec).

Series [6] concerns TIMP (TIMP 1, TIMP2). As to the kind of experiment: TIMP enzyme protein and mRNA expression in trabecular meshwork tissue. Format: in vivo, C57BL/6J mice. Particulars: Example 2 oral 20 mg/kg once a day and 10 mg/kg twice a day; acetazolamide 4.17 mg/kg once a day. As for the experimental part: (§1) In Experimental Example 10, the expression amounts of these proteins and mRNAs in MMP and TIMP enzymes were measured for the eye tissues of the respective laboratory animals which the measurement of the intraocular pressure was completed, and the results are shown in FIG. 14 to FIG. 17. FIG. 14 and FIG. 15 show protein expression amounts of MMP (MMP2, MMP9) and TIMP (TIMP 1, TIMP2) enzymes, respectively. FIG. 16 and FIG. 17 show mRNA expression levels. In FIG. 14 to FIG. 17, Normal represents the expression level of the animal to which the dexamethasone was not treated in Experimental Example 10, Control represents the expression level of the animal to which only the excipient was administered in Experimental Example 10, and Acetazolamide represents the expression level of the animal to which acetazolamide was administered in Experimental Example 10.

Series [7] deals with MMP (MMP2, MMP9). As to the kind of experiment: MMP enzyme protein and mRNA expression in trabecular meshwork tissue. It is filed as in vivo, C57BL/6J mice. Particulars: Example 2 oral 20 mg/kg once a day and 10 mg/kg twice a day; acetazolamide 4.17 mg/kg once a day. The method, then: as §1
The target in series [8] is T4, human adenosine A2A receptor (hA2A) (Homo sapiens, UniProt P29274).
T4 construct: expressed in transfected cells; host or cells: HEK 293
T4 sequence (P29274 whole entry): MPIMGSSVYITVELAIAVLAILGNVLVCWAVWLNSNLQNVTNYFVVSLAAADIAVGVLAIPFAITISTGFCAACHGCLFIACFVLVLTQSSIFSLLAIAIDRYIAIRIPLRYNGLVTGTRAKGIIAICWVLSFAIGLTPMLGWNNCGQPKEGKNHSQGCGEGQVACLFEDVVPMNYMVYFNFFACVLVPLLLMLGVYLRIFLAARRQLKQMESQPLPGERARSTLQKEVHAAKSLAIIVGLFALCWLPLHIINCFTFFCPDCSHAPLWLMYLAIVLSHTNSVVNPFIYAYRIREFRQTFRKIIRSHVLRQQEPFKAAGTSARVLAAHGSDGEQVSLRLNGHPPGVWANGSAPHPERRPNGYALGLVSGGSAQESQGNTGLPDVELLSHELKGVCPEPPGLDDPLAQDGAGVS
As to the kind of experiment: Binding affinity for human adenosine A2A receptor (HEK 293 cells, [3H]CGS-21680). The conditions noted are these: test concentration not given.

For series [9], the target named is T5, human adenosine A3 receptor (hA3) (Homo sapiens, UniProt P0DMS8).
T5 construct: expressed in transfected cells; host or cells: CHO (ATCC CCL-61)
T5 sequence (P0DMS8 1-318): T1 sequence (P0DMS8 1-318)
As to the kind of experiment: Binding affinity for human adenosine A3 receptor (CHO cells, [125I]AB-MECA). Particulars: read-out: K(nM) hA3.
Description: The Chinese hamster ovary (CHO, ATCC; American Cell Line No. CCL-61) cells expressing the adenosine A1 and A3 receptors were cultured in F-12 (Gibco Co., USA) medium supplemented with 10% fetal bovine serum (FBS) and penicillin/streptomycin (100 units/ml and 100 μg/ml) at 37° C. and 5% carbon dioxide. […] Various concentrations of the derivatives of the present invention are first dissolved in dimethylsulfoxide (DMSO) and then diluted with buffer solution and the final concentration of DMSO should not exceed 1%, and the cells are incubated in a 37° C. thermostat for 1 hour and the cells were rapidly filtered under reduced pressure using a cell collector (TOMTEC Co., USA). Subsequently, the test tube was washed three times with 3 ml buffer, and radioactivity was determined using a γ-counter. […] Specific binding was calculated by subtracting non-specific binding from total binding. From the measured specific binding, the bonding affinity of each sample of the various receptors was determined.

For series [10], the target named is T6, human adenosine A1 receptor (hA1) (Homo sapiens, UniProt P30542).
T6 construct: expressed in transfected cells; host or cells: CHO (ATCC CCL-61)
T6 sequence (P30542 1-326): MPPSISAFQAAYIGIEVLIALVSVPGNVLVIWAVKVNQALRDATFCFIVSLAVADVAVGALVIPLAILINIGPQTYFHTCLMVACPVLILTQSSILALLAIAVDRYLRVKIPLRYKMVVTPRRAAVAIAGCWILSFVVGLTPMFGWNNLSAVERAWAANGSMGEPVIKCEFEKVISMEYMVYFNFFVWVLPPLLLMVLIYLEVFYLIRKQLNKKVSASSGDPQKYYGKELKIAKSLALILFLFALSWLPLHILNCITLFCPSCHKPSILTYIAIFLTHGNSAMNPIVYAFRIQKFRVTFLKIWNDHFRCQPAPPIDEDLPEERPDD
As to the kind of experiment: Binding affinity for human adenosine A1 receptor (CHO cells, [3H]CCPA). The conditions noted are these: test concentration not given.

Setting [11] is: 0.5% in mixed solvent of DMSO and acetone (1:9).
Setting [12] is: 0.5% in mixed solvent of distilled water and acetone (1:4).

For the compound `O[C@@H]1[C@H](O)CS[C@H]1n1cnc2c(NCc3cccc(I)c3)nc(Cl)nc21` [Example 4, (2R,3R,4S)-2-(2-chloro-6-(3-iodobenzylamino)-9H-purin-9-yl)tetrahydrothiophene-3,4-diol], the “TPA-induced mouse ear edema” value is recorded as “reduced by a small amount” in [1] and “had an effect of reducing edema” in [1] (listed as compound 4). Besides, the “effect of the agonist Cl-IB-MECA in CHO cells treated with the compound” value in series [2] was “inhibited depending on the concentration”. Also, the “activity as an agonist or an antagonist at human adenosine A2B receptor” value in [3] is “did not show activity as an agonist or an antagonist”. This compound also gave a Ki in [4] of 3.89 ± 1.15 nM.
For the compound `CC(=O)Nc1nnc(S(N)(=O)=O)s1` [acetazolamide, reference compound], the “expression of fibronectin, SMA and MYOC protein in trabecular meshwork tissue” value in series [5] is listed as “increased expression”. Moreover, the “protein and mRNA expression levels of TIMP enzyme compared with the normal group” value in series [6] is “significantly increased”. Besides, the “protein and mRNA expression levels of MMP enzyme compared with the normal group” value in [7] was “significantly decreased”.
As for `O[C@@H]1[C@H](O)CS[C@H]1n1cnc2c(NCc3cccc(Br)c3)nc(Cl)nc21` [Example 3, (2R,3R,4S)-2-(2-chloro-6-(3-bromobenzylamino)-9H-purin-9-yl)tetrahydrothiophene-3,4-diol], the melting point (in general, the temperature, or range, at which the solid turns liquid) fell in the range of 184 to 185 °C. In series [1], the “TPA-induced mouse ear edema” value is “reduced by a small amount”.
Consider `O[C@@H]1[C@H](O)CO[C@H]1n1cnc2c(NCc3cccc(Br)c3)nc(Cl)nc21` [Example 15, (2R,3R,4R)-2-(6-(3-bromobenzylamino)-2-chloro-9H-purin-9-yl)tetrahydrofuran-3,4-diol], for which the melting point fell in the range of 181.5 to 181.7 °C. For the same compound, in series [1] (setting [11]), the inflammation inhibition rate amounted to 59%.
For “(2R,3R,4S)-2-(2-chloro-6-(naphthalen-1-ylmethylbenzylamino)-9H-purin-9-yl)tetrahydrothiophene-3,4-diol [Example 8]”, in series [8], the “% hA2A” value is recorded as −8.3%. The Ki in series [9] was determined as 24.8 ± 8.1 nM. In addition, the “% hA1” value in series [10] is reported as 22.0%.
For `O[C@@H]1[C@H](O)CS[C@H]1n1cnc2c(NCc3ccccc3Cl)nc(Cl)nc21` [Example 5, (2R,3R,4S)-2-(2-chloro-6-(2-chlorobenzylamino)-9H-purin-9-yl) tetrahydrothiophene-3,4-diol], the melting point fell in the range of 198.7 to 199.7 °C. Further, the inflammation inhibition rate in series [1] (setting [12]) is 17%.
In turn, `COc1ccc(Cl)cc1CNc1nc(Cl)nc2c1ncn2[C@@H]1SC[C@@H](O)[C@H]1O` [Example 6, (2R,3R,4S)-2-(2-chloro-6-(5-chloro-2-methoxybenzylamino)-9H-purin-9-yl)tetrahydrothiophene-3,4-diol] came in with a melting point of 188.8 to 189.8 °C. In [1] (setting [12]), this compound showed an inflammation inhibition rate of 34%.
As to `O[C@@H]1[C@H](O)CS[C@H]1n1cnc2c(NCc3cccc(Br)c3)ncnc21` [Example 13, (2R,3R,4S)-2-(6-(3-bromobenzylamino)-9H-purin-9-yl)tetrahydrothiophene-3,4-diol], the melting point was in the range of 183 to 184 °C.
On to `O[C@@H]1[C@H](O)CS[C@H]1n1cnc2c(NCc3cccc(F)c3)nc(Cl)nc21` [Example 1, (2R,3R,4S)-2-(2-chloro-6-(3-fluorobenzylamino)-9H-purin-9-yl)tetrahydrothiophene-3,4-diol], for which the melting point is 183.2 to 183.5 °C.
On the same count and under the same terms, as for `O=C(O)c1cccc(CNc2nc(Cl)nc3c2ncn3[C@@H]2SC[C@H](O)[C@@H]2O)c1` [Example 9, 3-((2-chloro-9-((2R,3S,4R)-3,4-dihydroxytetrahydrothiophen-2-yl)-9H-purin-6-ylamino)methyl)benzoic acid], the figure is 254 to 256.9 °C; as for `O[C@@H]1[C@H](O)CS[C@H]1n1cnc2c(NCc3cccc(I)c3)ncnc21` [Example 14, (2R,3R,4S)-2-(6-(3-iodobenzylamino)-9H-purin-9-yl) tetrahydrothiophene-3,4-diol], 198.8 to 199.8 °C.
Take `COc1ccccc1CNc1nc(Cl)nc2c1ncn2[C@@H]1SC[C@@H](O)[C@H]1O` [Example 7, (2R,3R,4S)-2-(2-chloro-6-(2-methoxybenzylamino)-9H-purin-9-yl)tetrahydrothiophene-3,4-diol]: the melting point was 188 °C. In [1] (setting [12]), this compound showed an inflammation inhibition rate of 53%.
With `O[C@@H]1[C@H](O)CO[C@H]1n1cnc2c(NCc3cccc(I)c3)nc(Cl)nc21` [Example 16, (2R,3R,4R)-2-(6-(3-iodobenzylamino)-2-chloro-9H-purin-9-yl)tetrahydrofuro-3,4-diol], the melting point was in the range of 195.5 to 195.8 °C. In addition, the inflammation inhibition rate in series [1] (setting [11]) is listed as 79%.
